Experiments:
[1] = target: T1, GSPT1 (Homo sapiens, UniProt P15170+Q96SW2); experiment: Western-blot assay, substrate protein in hPBMCs; assay type: cell-based; conditions: hPBMC cells, 24 hours, tested at 50 nM and 500 nM, table does not say which
T1 construct: endogenous in cells; host or cells: human PBMCs (Milecell Biotechnologies)
Procedure, shortened: (§1)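 Protein levels read by Western blot of lysates from human PBMCs (1×10^6 cells/mL) treated 24 h. Percent remaining is target band over loading-control band, normalised to DMSO-treated cells; DC50 is the concentration halving DMSO-control band intensity, estimated by curve fit.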

[2] = target: T2, Wee1 (Homo sapiens, UniProt P30291+Q96SW2); experiment: Western-blot assay, substrate protein in hPBMCs; assay type: cell-based; conditions: hPBMC cells, 24 hours, tested at 50 nM and 500 nM, table does not say which
T2 construct: endogenous in cells; host or cells: human PBMCs (Milecell Biotechnologies)
Procedure, shortened: as §1

[3] = target: T3, human Cereblon WT GST-tagged protein (Homo sapiens, UniProt Q96SW2); experiment: CRBN-binding affinity, HTRF (CEREBLON BINDING kit); conditions: displacement of Thalidomide-Re reagent, 3 hours at room temperature
T3 construct: purchased CISBIO 64BDCRBNPEH
Procedure, shortened: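 HTRF competition format: compound, GST-tagged wild-type human Cereblon, Thalidomide-Re tracer and GST Eu antibody were combined in PROTAC binding buffer. Binding was derived from emission at 620 nm relative to blank and solvent control wells.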

[4] = target: T4, IKZF1 (Homo sapiens, UniProt Q13422+Q96SW2); experiment: Western-blot assay, substrate protein in hPBMCs; assay type: cell-based; conditions: hPBMC cells, 24 hours, tested at 50 nM and 500 nM, table does not say which
T4 construct: endogenous in cells; host or cells: human PBMCs (Milecell Biotechnologies)
Experimental: (§2) The effect of the compounds of the present disclosure on the expression of target proteins in cells was detected using conventional Western blot analysis.
(§3) Human peripheral blood mononuclear cells (hPBMCs) at a density of 1×10^6 cells/mL were thawed according to the PBMC Recovery Protocol (Milecell Biotechnologies Inc, Shanghai). The cells were then treated with the compounds of the present disclosure (including the compounds listed in Tables 1 and 2, and the Examples A1-A20 and 1-116 compounds) at concentrations of 50 nM and 500 nM.
(§4) Controls included a negative control (DMSO) and a positive control (the commercial immunomodulatory drug lenalidomide), both processed following the identical experimental protocol as the compounds of the present disclosure. After 24 hours of compounds treatment, cells were harvested and lysed in RIPA protein lysate containing phosphatase inhibitors on ice for 30-60 min, followed by centrifugation. The supernatant was aspirated as the extracted total cell protein. The protein concentration of the supernatant was determined using the conventional BCA (Bicinchoninic Acid) assay. The supernatant was then mixed with 4× SDS sample loading buffer, denatured at 95° C. for 5 minutes, and then subjected to SDS-PAGE electrophoresis on a polyacrylamide gel. Proteins were then transferred to a nitrocellulose (NC) membrane, blocked at room temperature for 1-2 h, and processed for antibody incubation and detection according to the manufacturer's instructions (Cell Signaling Technology).
(§5) Half-Maximal Degradation Concentration value (the drug concentration required for degrading proteins by 50%, abbreviated as DC50) reads method: comparing the grayscale values of Western blot bands from drug-treated samples with those from blank DMSO-treated controls, and identifying the drug concentration range at which the grayscale value is half that of the DMSO-treated control bands.
(§6) DC50 values can be calculated using ImageJ software to measure grayscale values of Western blot bands from drug-treated samples. The concentration-response curve is fitted to estimate the drug concentration corresponding to half the grayscale value.
(§7) Target protein remaining (%) refers to the percentage of target protein remaining in hPBMC cells after treatment with protein degrader compounds.
(§8) Calculation method for protein remaining (%): Use ImageJ software to measure grayscale values of Western blot bands from drug (protein degrader)-treated samples. The grayscale value of drug-treated bands is divided by that of internal control protein bands, and the resulting quotient is normalized to obtain the relative percentage of remaining target protein after protein degrader treatment.
(§9) Target protein degradation rate (%)=100%−target protein remaining (%).

[5] = target: T5, IKZF3 (Homo sapiens, UniProt Q96SW2+Q9UKT9); experiment: Western-blot assay, substrate protein in hPBMCs; assay type: cell-based; conditions: hPBMC cells, 24 hours, tested at 50 nM and 500 nM, table does not say which
T5 construct: endogenous in cells; host or cells: human PBMCs (Milecell Biotechnologies)
Experimental: as §2, §3, §4, §5, §6, §7, §8, §9

[6] = target: T6, IKZF2 (Homo sapiens, UniProt Q96SW2+Q9UKS7); experiment: Western-blot assay, substrate protein in hPBMCs; assay type: cell-based; conditions: hPBMC cells, 24 hours, tested at 50 nM and 500 nM, table does not say which
T6 construct: endogenous in cells; host or cells: human PBMCs (Milecell Biotechnologies)
Procedure, shortened: as §1

[7] = target: T7, CK1α (Homo sapiens, UniProt P48729+Q96SW2); experiment: Western-blot assay, substrate protein in hPBMCs; assay type: cell-based; conditions: hPBMC cells, 24 hours, tested at 50 nM and 500 nM, table does not say which
T7 construct: endogenous in cells; host or cells: human PBMCs (Milecell Biotechnologies)
Procedure, shortened: as §1

T5 sequence (Q9UKT9 whole entry): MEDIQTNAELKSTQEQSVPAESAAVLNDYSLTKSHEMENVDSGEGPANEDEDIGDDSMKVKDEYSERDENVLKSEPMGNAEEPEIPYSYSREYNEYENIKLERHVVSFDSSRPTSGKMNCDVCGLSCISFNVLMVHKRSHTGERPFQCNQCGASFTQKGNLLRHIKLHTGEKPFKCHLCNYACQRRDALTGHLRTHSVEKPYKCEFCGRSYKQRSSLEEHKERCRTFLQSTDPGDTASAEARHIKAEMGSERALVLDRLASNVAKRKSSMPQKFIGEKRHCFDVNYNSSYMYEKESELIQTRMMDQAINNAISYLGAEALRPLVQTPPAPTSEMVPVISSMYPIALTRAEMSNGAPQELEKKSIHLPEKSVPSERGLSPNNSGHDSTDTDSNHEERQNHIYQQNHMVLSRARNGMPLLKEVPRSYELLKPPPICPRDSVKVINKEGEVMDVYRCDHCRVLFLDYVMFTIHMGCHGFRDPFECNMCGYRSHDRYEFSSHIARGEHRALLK
T5 sequence (Q96SW2 whole entry): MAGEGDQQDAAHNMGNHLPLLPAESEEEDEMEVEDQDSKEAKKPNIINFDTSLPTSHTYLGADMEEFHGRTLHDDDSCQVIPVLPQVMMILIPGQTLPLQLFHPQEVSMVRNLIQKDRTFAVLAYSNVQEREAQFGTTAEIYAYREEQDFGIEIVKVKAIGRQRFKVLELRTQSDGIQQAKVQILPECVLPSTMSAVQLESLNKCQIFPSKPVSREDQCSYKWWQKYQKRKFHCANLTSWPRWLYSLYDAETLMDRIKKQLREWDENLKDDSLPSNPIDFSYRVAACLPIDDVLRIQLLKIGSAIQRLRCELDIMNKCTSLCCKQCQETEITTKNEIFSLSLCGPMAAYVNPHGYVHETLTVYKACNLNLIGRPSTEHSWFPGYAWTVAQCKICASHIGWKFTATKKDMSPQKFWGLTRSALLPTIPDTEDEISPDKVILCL
T5 sequence (Q16531 whole entry partner): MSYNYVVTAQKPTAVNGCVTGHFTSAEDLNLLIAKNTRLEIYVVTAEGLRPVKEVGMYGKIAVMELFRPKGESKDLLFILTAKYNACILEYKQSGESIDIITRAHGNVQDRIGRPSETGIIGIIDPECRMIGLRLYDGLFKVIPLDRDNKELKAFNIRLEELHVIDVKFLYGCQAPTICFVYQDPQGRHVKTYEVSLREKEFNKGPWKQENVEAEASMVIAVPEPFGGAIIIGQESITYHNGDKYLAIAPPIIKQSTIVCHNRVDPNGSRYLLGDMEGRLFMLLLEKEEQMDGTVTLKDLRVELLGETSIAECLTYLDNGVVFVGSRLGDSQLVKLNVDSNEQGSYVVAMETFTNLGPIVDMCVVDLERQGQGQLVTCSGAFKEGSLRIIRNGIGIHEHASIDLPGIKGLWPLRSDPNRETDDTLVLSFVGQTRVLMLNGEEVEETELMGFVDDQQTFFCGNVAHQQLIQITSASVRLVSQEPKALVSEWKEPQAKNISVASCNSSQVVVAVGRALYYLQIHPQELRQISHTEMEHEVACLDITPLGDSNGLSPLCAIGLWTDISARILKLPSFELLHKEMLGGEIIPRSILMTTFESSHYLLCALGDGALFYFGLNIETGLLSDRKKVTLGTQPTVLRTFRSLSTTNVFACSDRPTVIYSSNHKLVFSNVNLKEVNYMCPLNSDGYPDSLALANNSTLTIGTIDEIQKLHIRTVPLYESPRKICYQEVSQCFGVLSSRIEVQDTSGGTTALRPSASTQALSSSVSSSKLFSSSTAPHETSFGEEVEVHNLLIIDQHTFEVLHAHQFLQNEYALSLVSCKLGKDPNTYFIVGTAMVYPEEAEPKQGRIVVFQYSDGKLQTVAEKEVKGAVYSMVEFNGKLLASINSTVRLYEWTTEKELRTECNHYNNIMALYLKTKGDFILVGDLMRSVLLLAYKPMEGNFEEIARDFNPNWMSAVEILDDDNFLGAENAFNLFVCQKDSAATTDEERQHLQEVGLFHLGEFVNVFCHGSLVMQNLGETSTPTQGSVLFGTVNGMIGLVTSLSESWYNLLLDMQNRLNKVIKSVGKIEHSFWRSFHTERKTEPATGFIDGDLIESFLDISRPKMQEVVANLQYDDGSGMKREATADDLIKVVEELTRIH
T6 sequence (Q9UKS7 whole entry): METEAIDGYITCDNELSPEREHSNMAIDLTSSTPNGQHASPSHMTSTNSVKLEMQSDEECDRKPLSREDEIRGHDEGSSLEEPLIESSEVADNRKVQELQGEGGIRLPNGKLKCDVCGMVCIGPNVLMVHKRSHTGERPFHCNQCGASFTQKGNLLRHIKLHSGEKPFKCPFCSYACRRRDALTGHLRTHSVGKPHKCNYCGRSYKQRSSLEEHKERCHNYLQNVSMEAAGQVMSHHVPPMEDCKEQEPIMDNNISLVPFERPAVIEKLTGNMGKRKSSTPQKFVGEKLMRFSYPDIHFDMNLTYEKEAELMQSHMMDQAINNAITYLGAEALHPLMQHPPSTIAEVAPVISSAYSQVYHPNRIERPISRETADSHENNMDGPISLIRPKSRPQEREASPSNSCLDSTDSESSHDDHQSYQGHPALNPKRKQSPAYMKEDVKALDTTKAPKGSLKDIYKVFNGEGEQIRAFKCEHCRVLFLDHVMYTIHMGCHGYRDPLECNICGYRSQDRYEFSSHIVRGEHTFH
T6 sequence (Q96SW2 whole entry): as the sequence (Q96SW2 whole entry) above
T6 sequence (Q16531 whole entry partner): as the sequence (Q16531 whole entry partner) above
T2 sequence (P30291 whole entry): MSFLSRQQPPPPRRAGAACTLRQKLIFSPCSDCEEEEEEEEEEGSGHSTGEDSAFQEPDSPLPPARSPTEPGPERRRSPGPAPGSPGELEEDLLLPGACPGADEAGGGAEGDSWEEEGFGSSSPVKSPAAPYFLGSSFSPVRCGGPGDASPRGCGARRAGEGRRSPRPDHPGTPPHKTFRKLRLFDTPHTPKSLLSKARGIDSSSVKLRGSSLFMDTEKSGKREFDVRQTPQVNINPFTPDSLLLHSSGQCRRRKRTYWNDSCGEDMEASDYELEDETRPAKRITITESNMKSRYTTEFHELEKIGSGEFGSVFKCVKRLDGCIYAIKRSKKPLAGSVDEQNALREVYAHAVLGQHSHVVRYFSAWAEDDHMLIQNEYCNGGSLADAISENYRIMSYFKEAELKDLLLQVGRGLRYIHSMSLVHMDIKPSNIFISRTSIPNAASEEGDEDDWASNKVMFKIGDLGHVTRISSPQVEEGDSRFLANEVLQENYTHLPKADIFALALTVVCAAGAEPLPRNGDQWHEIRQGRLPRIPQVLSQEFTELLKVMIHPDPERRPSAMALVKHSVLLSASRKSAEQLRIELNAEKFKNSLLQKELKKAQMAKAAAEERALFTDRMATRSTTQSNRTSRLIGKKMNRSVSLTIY
T2 sequence (Q96SW2 whole entry): as the sequence (Q96SW2 whole entry) above
T2 sequence (Q16531 whole entry partner): as the sequence (Q16531 whole entry partner) above
T1 sequence (P15170 whole entry): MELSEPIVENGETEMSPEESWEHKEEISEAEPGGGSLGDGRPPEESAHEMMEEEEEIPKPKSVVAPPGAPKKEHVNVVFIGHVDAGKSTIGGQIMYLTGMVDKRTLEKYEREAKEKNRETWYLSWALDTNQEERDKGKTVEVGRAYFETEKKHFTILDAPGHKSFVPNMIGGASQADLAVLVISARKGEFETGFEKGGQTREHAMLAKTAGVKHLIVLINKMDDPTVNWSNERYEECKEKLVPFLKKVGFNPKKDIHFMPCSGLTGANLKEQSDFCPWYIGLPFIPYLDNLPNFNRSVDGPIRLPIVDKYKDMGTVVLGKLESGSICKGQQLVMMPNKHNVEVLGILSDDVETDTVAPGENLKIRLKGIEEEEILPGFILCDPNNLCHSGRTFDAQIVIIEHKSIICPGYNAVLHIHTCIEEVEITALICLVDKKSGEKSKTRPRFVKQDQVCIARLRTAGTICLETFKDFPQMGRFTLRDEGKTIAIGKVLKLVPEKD
T1 sequence (Q96SW2 whole entry): as the sequence (Q96SW2 whole entry) above
T1 sequence (Q16531 whole entry partner): as the sequence (Q16531 whole entry partner) above
T3 sequence (Q96SW2 whole entry): as the sequence (Q96SW2 whole entry) above
T7 sequence (P48729 whole entry): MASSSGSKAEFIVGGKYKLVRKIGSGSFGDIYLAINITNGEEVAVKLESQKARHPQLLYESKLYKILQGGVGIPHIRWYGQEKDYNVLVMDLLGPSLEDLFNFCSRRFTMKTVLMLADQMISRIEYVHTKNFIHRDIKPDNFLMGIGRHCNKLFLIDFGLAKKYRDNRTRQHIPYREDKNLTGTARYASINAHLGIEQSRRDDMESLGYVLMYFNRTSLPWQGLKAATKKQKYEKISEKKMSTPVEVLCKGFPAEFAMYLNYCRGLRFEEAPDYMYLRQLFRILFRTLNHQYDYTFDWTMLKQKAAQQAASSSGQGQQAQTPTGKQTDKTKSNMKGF
T7 sequence (Q96SW2 whole entry): as the sequence (Q96SW2 whole entry) above
T7 sequence (Q16531 whole entry partner): as the sequence (Q16531 whole entry partner) above

Compound	substrate protein remaining % [1]	substrate protein remaining % [2]	IC50 [3] [µM]	substrate protein remaining % [4]	substrate protein remaining % [5]	substrate protein remaining % [6]	substrate protein remaining % [7]
CC1(C)CCC(CN2CC(Oc3ccc4c(c3)CN(C3CCC(=O)NC3=O)C4=O)C2)=C(c2ccc(Cl)cc2)C1 (stereo not shown) [GT-03369, 3-(5-((1-((4′-chloro-5,5-dimethyl-3,4,5,6-tetrahydro-[1,1′-biphenyl]-2-yl)methyl)azetidin-3-yl)oxy)-1-oxoisoindolin-2-yl)piperidine-2,6-dione]	A (0%≤ substrate protein remaining % ≤80%)	A (0%≤ substrate protein remaining % ≤80%)	0.5 to 1	A (0%≤ substrate protein remaining % ≤80%)	A (0%≤ substrate protein remaining % ≤80%)		
O=C1CCC(N2Cc3cc(OC4CN(C(c5ccccc5)c5ccccc5)C4)ccc3C2=O)C(=O)N1 (stereo not shown) [GT-06185, 3-(5-((1-benzhydrylazetidin-3-yl)oxy)-1-oxoisoindolin-2-yl)piperidine-2,6-dione]	A (0%≤ substrate protein remaining % ≤80%)		< 0.5		A (0%≤ substrate protein remaining % ≤80%)	A (0%≤ substrate protein remaining % ≤80%)	
O=C1CCC(N2Cc3cc(SC4CN(CC5=C(c6ccc(Cl)cc6)CCC(F)(F)C5)C4)ccc3C2=O)C(=O)N1 (stereo not shown) [GT-06516, 3-(5-((1-((4′-chloro-4,4-difluoro-3,4,5,6-tetrahydro-[1,1′-biphenyl]-2-yl)methyl)azetidin-3-yl)thio)-1-oxoisoindolin-2-yl)piperidine-2,6-dione]	A (0%≤ substrate protein remaining % ≤80%)	A (0%≤ substrate protein remaining % ≤80%)	1 to 1.9		A (0%≤ substrate protein remaining % ≤80%)	A (0%≤ substrate protein remaining % ≤80%)	A (0%≤ substrate protein remaining % ≤80%)
O=C1CCC(N2Cc3cc(OC4CN(C(c5ccccn5)c5ccccn5)C4)ccc3C2=O)C(=O)N1 (stereo not shown) [GT-06814, 3-(5-((1-(di(pyridin-2-yl)methyl)azetidin-3-yl)oxy)-1-oxoisoindolin-2-yl)piperidine-2,6-dione]	A (0%≤ substrate protein remaining % ≤80%)	A (0%≤ substrate protein remaining % ≤80%)	< 0.5		A (0%≤ substrate protein remaining % ≤80%)	A (0%≤ substrate protein remaining % ≤80%)	A (0%≤ substrate protein remaining % ≤80%)
O=C1CCC(N2Cc3cc(OC4CCN(Cc5ccccc5-c5ccc(Cl)cc5)C4)ccc3C2=O)C(=O)N1 (stereo not shown) [GT-06817, 3-(5-((1-((4′-chloro-[1,1′-biphenyl]-2-yl)methyl)pyrrolidin-3-yl)oxy)-1-oxoisoindolin-2-yl)piperidine-2,6-dione]	A (0%≤ substrate protein remaining % ≤80%)	A (0%≤ substrate protein remaining % ≤80%)	0.5 to 1		A (0%≤ substrate protein remaining % ≤80%)	A (0%≤ substrate protein remaining % ≤80%)	A (0%≤ substrate protein remaining % ≤80%)
O=C1CCC(N2Cc3cc(OC4CCN(C(c5ccccc5)c5ccccc5)C4)ccc3C2=O)C(=O)N1 (stereo not shown) [GT-06819, 3-(5-((1-benzhydrylpyrrolidin-3-yl)oxy)-1-oxoisoindolin-2-yl)piperidine-2,6-dione]	A (0%≤ substrate protein remaining % ≤80%)	A (0%≤ substrate protein remaining % ≤80%)	< 0.5		A (0%≤ substrate protein remaining % ≤80%)	A (0%≤ substrate protein remaining % ≤80%)	A (0%≤ substrate protein remaining % ≤80%)
CC1(C)CCC(CN2CC(Oc3ccc4c(c3)C(=O)N(C3CCC(=O)NC3=O)C4)C2)=C(c2ccc(Cl)cc2)C1 (stereo not shown) [GT-06872, 3-(6-((1-((4′-chloro-5,5-dimethyl-3,4,5,6-tetrahydro-[1,1′-biphenyl]-2-yl)methyl)azetidin-3-yl)oxy)-1-oxoisoindolin-2-yl)piperidine-2,6-dione]	A (0%≤ substrate protein remaining % ≤80%)	A (0%≤ substrate protein remaining % ≤80%)	1 to 1.9		A (0%≤ substrate protein remaining % ≤80%)	A (0%≤ substrate protein remaining % ≤80%)	A (0%≤ substrate protein remaining % ≤80%)
CC1(C)CCC(CN2CCCC(Oc3ccc4c(c3)CN(C3CCC(=O)NC3=O)C4=O)CC2)=C(c2ccc(Cl)cc2)C1 (stereo not shown) [GT-06929, 3-(5-((1-((4′-chloro-5,5-dimethyl-3,4,5,6-tetrahydro-[1,1′-biphenyl]-2-yl)methyl)azepan-4-yl)oxy)-1-oxoisoindolin-2-yl)piperidine-2,6-dione]		A (0%≤ substrate protein remaining % ≤80%)	0.5 to 1		A (0%≤ substrate protein remaining % ≤80%)	A (0%≤ substrate protein remaining % ≤80%)	
CC1(C)CCC(CN2CC(Oc3cccc4c3CN(C3CCC(=O)NC3=O)C4=O)C2)=C(c2ccc(Cl)cc2)C1 (stereo not shown) [GT-06952, 3-(4-((1-((4′-chloro-5,5-dimethyl-3,4,5,6-tetrahydro-[1,1′-biphenyl]-2-yl)methyl)azetidin-3-yl)oxy)-1-oxoisoindolin-2-yl)piperidine-2,6-dione]	A (0%≤ substrate protein remaining % ≤80%)		0.5 to 1	A (0%≤ substrate protein remaining % ≤80%)	A (0%≤ substrate protein remaining % ≤80%)		A (0%≤ substrate protein remaining % ≤80%)
O=C1CCC(N2Cc3cc(SC4CCC5(CC4)CCN(C(c4ccccc4)c4ccccc4)CC5)ccc3C2=O)C(=O)N1 (stereo not shown) [GT-06958, 3-(5-((3-benzhydryl-3-azaspiro[5.5]undecan-9-yl)thio)-1-oxoisoindolin-2-yl)piperidine-2,6-dione]	A (0%≤ substrate protein remaining % ≤80%)	A (0%≤ substrate protein remaining % ≤80%)	< 0.5		A (0%≤ substrate protein remaining % ≤80%)		A (0%≤ substrate protein remaining % ≤80%)
COc1ccc(C(c2ccc(OC)cc2)N2CC(Oc3ccc4c(c3)CN(C3CCC(=O)NC3=O)C4=O)C2)cc1 (stereo not shown) [GT-06959, 3-(5-((1-(bis(4-methoxyphenyl)methyl)azetidin-3-yl)oxy)-1-oxoisoindolin-2-yl)piperidine-2,6-dione]	A (0%≤ substrate protein remaining % ≤80%)	A (0%≤ substrate protein remaining % ≤80%)	< 0.5		A (0%≤ substrate protein remaining % ≤80%)		A (0%≤ substrate protein remaining % ≤80%)
CC1(C)CCC(C(=O)N2C[C@H]3CC(Sc4ccc5c(c4)CN(C4CCC(=O)NC4=O)C5=O)C[C@H]3C2)=C(c2ccc(Cl)cc2)C1 (stereo partly drawn) [GT-07015, 3-(5-(((3aR,6aS)-2-(4′-chloro-5,5-dimethyl-3,4,5,6-tetrahydro-[1,1′-biphenyl]-2-carbonyl)octahydro-cyclopenta[c]pyrrol-5-yl)thio)-1-oxoisoindolin-2-yl)piperidine-2,6-dione]			0.5 to 1		A (0%≤ substrate protein remaining % ≤80%)	A (0%≤ substrate protein remaining % ≤80%)	

Source: patent US20260207578A1, “COMPOUND BASED ON SULFUR/OXYGEN SUBSTITUTED GLUTARIMIDE-BASED ISOINDOLINONE SKELETON AND USE THEREOF” (Gluetacs Therapeutics (Shanghai) Co., LTD., priority 2022, published 2026)
